From patent US20090246134A1, “COMPOSITIONS AND METHODS FOR MODULATING GATED ION CHANNELS” (PainCeptor Pharma Corporation, priority 2007, published 2009)
Where “and” joins values, the source holds several entries; their conditions need not be identical. Identical values can stand only once.

Experiments:
[1] = Metabolite identification (LC-MS), sample 1, source of sample not given; assay type: in vitro ADME
Description: (§1) The objective of this study is to analyze in vitro samples of Compound A and Compound B from rat and human microsomes using liquid chromatography quadrupole ion trap mass spectrometry and identify the nature of the metabolite(s) for each species.
(§2) The HPLC system consisted of a Thermo Surveror autosampler and a Thermo Surveyor MS pump (San Jose, Calif., USA). The LC-MS/MS system used was a Thermo LCQ Advantage (San Jose, Calif., USA). Data was acquired on a Dell Optiplex desktop computer (Round Rock, Tex., USA) equipped with operation system Windows XP professional. Data acquisition and analysis were performed using XCalibur 1.4 (San Jose, Calif., USA).
(§3) After the incubation period of the liver microsomes, the reaction was stopped with the addition of acetonitrile and frozen for transport. Before analysis, the samples were thawed at room temperature. They were vortexed vigorously and centrifuged at approximately 12000 g for 10 minutes. The supernatant was transferred into an injection vial for analysis.
(§4) A gradient mobile phase was used with a Thermo Phenyl 100×2 mm column with particle size of 5 μm. The initial mobile phase condition consisted of methanol and 0.1% formic acid solution at a ratio of 20:80, respectively. From 0 to 2 minutes, the ratio was maintained at 20:80. From 2 to 10 minutes, a linear gradient was applied and a ratio of 90:10 was maintained from 10 to 12 minutes. […] The flow rate was fixed at 0.25 mL/min.
(§5) The mass spectrometer was interfaced with the HPLC system using a pneumatic assisted electrospray ion source. The sheath gas was set to 15 units and the ESI electrode was set to 4000 V (positive mode). The capillary temperature was set at 300° C., and the capillary voltage was set to 13 V. The mass spectrometer was operating in full scan MS mode using one segment analysis (200-800).

[2] = tested on: CFA-induced change in weight bearing in Sprague-Dawley rats; assay: CFA model of chronic inflammatory pain, hindpaw weight bearing; assay type: in vivo, rat; conditions: 24 h after CFA; 60 min after drug; Compound A 5, 10, 20 mg/kg i.p.; Compound H 10, 30, 60 mg/kg; morphine 3, 6, 10 mg/kg; n=7-8
Method: Rats (body weight 260-300 g) were given a s.c. injection of CFA (50% in saline, 100 μl, Sigma) into the plantar surface of the hindpaw under brief halothane anaesthesia. After 24 h, they were then tested for hindpaw weight bearing responses, as assessed using an Incapacitance Tester (Linton Instrumentation, UK), (Zhu et al., 2005). The instrument incorporates a dual channel scale that separately measures the weight of the animal distributed to each hindpaw. While normal rats distribute their body weight equally between the two hindpaws (50-50), the discrepancy of weight distribution between an injured and non-injured paw is a natural reflection of the discomfort level in the injured paw (nocifensive behavior). The rats were placed in the plastic chamber designed so that each hindpaw rested on a separate transducer pad. […] For each rat, three readings from each paw were taken and then averaged. Side-to-side weight bearing difference was calculated as the average of the absolute value of the difference between two hindpaws from three trials (right paw reading-left paw reading).
Hindpaw weight bearing responses were measured in male Sprague-Dawley rats for 2-3 days prior to being given a hindpaw injection of CFA. Twenty-four hours later baseline responses were measured and rats were then administered Compound A (5, 10 and 20 mg/kg, i.p.), Compound H (10, 30 and 60 mg/kg) and morphine (3, 6 and 10 mg/kg). Weight bearing responses were then measured at 30, 60 and 120 min after drug or vehicle injection (data shown at 60 min.). […] All groups n=7-8.

[3] = Liver microsomes stability and metabolite identification (LC-MS), rat; assay type: in vitro ADME
Description: as §1, §2, §3, §4, §5

[4] = Liver microsomes stability and metabolite identification (LC-MS), dog; assay type: in vitro ADME
[5] = Plasma composition analysis, parent compound and metabolites by MS; assay type: in vivo; conditions: rat plasma
Method: Rats receive compounds (5 mg/kg) dissolved in HPβCD 15%, dextrose 2.5%, pH 5 by intravenous (i.v). route or (25-30 mg/kg) dissolved in HPβCD 15%, dextrose 2.5%, […] (s.c.) route or (50-150 mg/kg) dissolved in HPβCD 15%, dextrose 2.5%, pH 5 by oral (p.o.) route. After the treatment, approximately 100 μl of blood sample is collected and the accurate bleeding time is recorded for each sample. Each blood sample is collected into Microvette blood collection tube containing anticoagulant lithium heparin. Following collection, the samples are centrifuged at […] for 15 minutes (to avoid haemolysis) and the plasma obtained from each is recovered and stored frozen (at −80° C.) pending analysis. Frozen samples are shipped on dry ice to quantify drug concentration within plasma after extraction procedure as previously described in Example 13.

[6] = rat microsomes 60 min (samples 5-7)
[7] = dog microsomes 60 min (samples 23-25)

Compound A metabolite identification: m/z 342 [1]: no
Compound A metabolite identification: m/z 356 (parent) [1]: Yes
Compound A metabolite identification: m/z 372 [1]: no
Compound A metabolite identification: m/z 412 [1]: no
Total % metabolites ([3]; % peak area relative to parent at T0, 60 min incubation, rat microsomes): 32.76%
Compound A metabolite identification: m/z 342 [3, 6]: Yes
Compound A metabolite identification: m/z 356 (parent) [3, 6]: Yes
Compound A metabolite identification: m/z 372 [3, 6]: Yes
Compound A metabolite identification: m/z 412 [3, 6]: trace
Calc. Conc. ([3]; rat microsomes, time 0 min): 3.61 µM and 3.80 µM
Calc. Conc. ([3]; rat microsomes, time 60 min): 2.49 µM and 2.67 µM and 2.40 µM
Total % metabolites ([4]; % peak area relative to parent at T0, 60 min incubation, dog microsomes): 2.74%
Compound A metabolite identification: m/z 342 [4, 7]: weak
Compound A metabolite identification: m/z 356 (parent) [4, 7]: Yes
Compound A metabolite identification: m/z 372 [4, 7]: Yes
Compound A metabolite identification: m/z 412 [4, 7]: no
Calc. Conc. ([4]; dog microsomes, time 0 min): 4.71 µM and 5.14 µM
Calc. Conc. ([4]; dog microsomes, time 60 min): 3.95 µM and 4.05 µM and 4.10 µM
Plasma Component: N-desMe or desEt ([5]; IV 5 mg/kg): Small
Plasma Component: O-desMe ([5]; IV 5 mg/kg): Trace
Plasma Component: N-desMe or desEt ([5]; PO 50 mg/kg): Small
Plasma Component: O-desMe ([5]; PO 50 mg/kg): Trace
SMILES: COc1ccc(F)cc1-c1cc2c(c3c1CCN(C)C3)NC(=O)C2=NO [Compound A, 5-(5-fluoro-2-methoxyphenyl)-6,7,8,9-tetrahydro-3-(hydroxyimino)-8-methyl-1H-pyrrolo[3,2-h]isoquinoline-2(3H)-one]
CFA-induced change in weight bearing compared with vehicle [2]: marked dose-dependent attenuation
